Earlier results in publication PMC3433420 (PLoS ONE, 2012).
Like-named read-outs stand apart in the source and are kept apart here.

Molecular target: SH2 and PTB domains
Conditions: cited from earlier work
Text: Supplement pone.0044471.s022.xlsx, sheet "Most recent PM interactions" | column: Kd || Supplement pone.0044471.s022.xlsx, sheet "All original PM interactions" | column: Kd

[1] = protein ABL2, ref Jones et al. 2006 / Kaushansky et al. Mol Biosys 2008 / Kaushansky et al. Chem and Biol 2008
[2] = protein BLK, ref Jones et al. 2006 / Kaushansky et al. Mol Biosys 2008 / Kaushansky et al. Chem and Biol 2008
[3] = protein RASA1-N, ref Jones et al. 2006 / Kaushansky et al. Mol Biosys 2008 / Kaushansky et al. Chem and Biol 2008
[4] = protein SYK-NC, ref Jones et al. 2006 / Kaushansky et al. Mol Biosys 2008 / Kaushansky et al. Chem and Biol 2008
[5] = protein YES1, ref Jones et al. 2006 / Kaushansky et al. Mol Biosys 2008 / Kaushansky et al. Chem and Biol 2008
[6] = Protein ABL2, most recent PM interactions, ref Jones et al. 2006 / Kaushansky et al. Chem and Biol 2008
[7] = Protein SHC1-PTB, most recent PM interactions, ref Jones et al. 2006 / Kaushansky et al. Chem and Biol 2008
[8] = protein SHB, ref Jones et al. 2006 / Kaushansky et al. Mol Biosys 2008 / Kaushansky et al. Chem and Biol 2008

Question: Which results are given for “EEYEpYMNRRRRHd [ErbB3 pY1199, N-terminally rhodamine-labeled 13-mer phosphopeptide]”?
Answer: Kd (protein ABL2, ref Kaushansky et al. Chem and Biol 2008): 300 nM; Kd (protein BLK, ref Kaushansky et al. Chem and Biol 2008): 1810 nM; Kd (protein FGR, ref Kaushansky et al. Chem and Biol 2008): 1130 nM; Kd (protein PIK3R1-NC, ref Kaushansky et al. Chem and Biol 2008): 1510 nM; Kd (protein PIK3R2-N, ref Kaushansky et al. Chem and Biol 2008): 1350 nM; Kd (protein PIK3R3-N, ref Kaushansky et al. Chem and Biol 2008): 1380 nM; Kd (protein PIK3R3-NC, ref Kaushansky et al. Chem and Biol 2008): 1460 nM; Kd (protein RASA1-N, ref Kaushansky et al. Chem and Biol 2008): 310 nM; Kd (protein YES1, ref Kaushansky et al. Chem and Biol 2008): 590 nM; Kd (protein ZAP70-NC, ref Kaushansky et al. Chem and Biol 2008): 1470 nM

Question: For ELMTFGSKPpYDGIPASEd [ErbB1 915], which Kd (Protein ABL2, most recent PM interactions, ref Jones et al. 2006 / Kaushansky et al. Mol Biosys 2008 / Kaushansky et al. Chem and Biol 2008) is on record?
Answer: 180 nM

Question: What about the Kd (Protein BLK, most recent PM interactions, ref Jones et al. 2006 / Kaushansky et al. Mol Biosys 2008 / Kaushansky et al. Chem and Biol 2008) of the same substance?
Answer: 1180 nM

Question: What about the Kd (Protein RASA1-N, most recent PM interactions, ref Jones et al. 2006 / Kaushansky et al. Mol Biosys 2008 / Kaushansky et al. Chem and Biol 2008) of the same substance?
Answer: 1410 nM

Question: What about the Kd (Protein SHB, most recent PM interactions, ref Jones et al. 2006 / Kaushansky et al. Mol Biosys 2008 / Kaushansky et al. Chem and Biol 2008) of the same substance?
Answer: 1060 nM

Question: And the Kd (Protein SYK-NC, most recent PM interactions, ref Jones et al. 2006 / Kaushansky et al. Mol Biosys 2008 / Kaushansky et al. Chem and Biol 2008)?
Answer: 1550 nM

Question: And the Kd (Protein YES1, most recent PM interactions, ref Jones et al. 2006 / Kaushansky et al. Mol Biosys 2008 / Kaushansky et al. Chem and Biol 2008)?
Answer: 330 nM

Question: With “ENAEpYLRVAPQSd [ErbB1 pY1197, N-terminally rhodamine-labeled 13-mer phosphopeptide]” as the substance, how does the Kd [1] read?
Answer: 210 nM

Question: And the Kd [2]?
Answer: 500 nM

Question: What about the Kd (protein CRK, ref Jones et al. 2006 / Kaushansky et al. Mol Biosys 2008 / Kaushansky et al. Chem and Biol 2008) of the same substance?
Answer: 1070 nM

Question: And the Kd (protein CRKL, ref Jones et al. 2006 / Kaushansky et al. Mol Biosys 2008 / Kaushansky et al. Chem and Biol 2008)?
Answer: 1340 nM

Question: What about the Kd (protein FGR, ref Jones et al. 2006 / Kaushansky et al. Mol Biosys 2008 / Kaushansky et al. Chem and Biol 2008) of the same substance?
Answer: 620 nM

Question: And the Kd (protein GRB2, ref Jones et al. 2006 / Kaushansky et al. Mol Biosys 2008 / Kaushansky et al. Chem and Biol 2008)?
Answer: 420 nM

Question: And the Kd (protein ITK, ref Jones et al. 2006 / Kaushansky et al. Mol Biosys 2008 / Kaushansky et al. Chem and Biol 2008)?
Answer: 500 nM

Question: What about the Kd (protein LYN, ref Jones et al. 2006 / Kaushansky et al. Mol Biosys 2008 / Kaushansky et al. Chem and Biol 2008) of the same substance?
Answer: 170 nM

Question: What about the Kd (protein PIK3R1-N, ref Jones et al. 2006 / Kaushansky et al. Mol Biosys 2008 / Kaushansky et al. Chem and Biol 2008) of the same substance?
Answer: 500 nM

Question: What about the Kd (protein PIK3R1-NC, ref Jones et al. 2006 / Kaushansky et al. Mol Biosys 2008 / Kaushansky et al. Chem and Biol 2008) of the same substance?
Answer: 500 nM

Question: And the Kd (protein PIK3R2-N, ref Jones et al. 2006 / Kaushansky et al. Mol Biosys 2008 / Kaushansky et al. Chem and Biol 2008)?
Answer: 500 nM

Question: And the Kd (protein PIK3R3-NC, ref Jones et al. 2006 / Kaushansky et al. Mol Biosys 2008 / Kaushansky et al. Chem and Biol 2008)?
Answer: 810 nM

Question: And the Kd (protein PLCG2-NC, ref Jones et al. 2006 / Kaushansky et al. Mol Biosys 2008 / Kaushansky et al. Chem and Biol 2008)?
Answer: 500 nM

Question: What about the Kd [3] of the same substance?
Answer: 710 nM

Question: And the Kd (protein RASA1-NC, ref Jones et al. 2006 / Kaushansky et al. Mol Biosys 2008 / Kaushansky et al. Chem and Biol 2008)?
Answer: 500 nM

Question: What about the Kd (protein SHC1-PTB, ref Jones et al. 2006 / Kaushansky et al. Mol Biosys 2008 / Kaushansky et al. Chem and Biol 2008) of the same substance?
Answer: 340 nM

Question: And the Kd (protein SHC1, ref Jones et al. 2006 / Kaushansky et al. Mol Biosys 2008 / Kaushansky et al. Chem and Biol 2008)?
Answer: 780 nM

Question: And the Kd (protein SHC3, ref Jones et al. 2006 / Kaushansky et al. Mol Biosys 2008 / Kaushansky et al. Chem and Biol 2008)?
Answer: 1030 nM

Question: What about the Kd (protein SRC, ref Jones et al. 2006 / Kaushansky et al. Mol Biosys 2008 / Kaushansky et al. Chem and Biol 2008) of the same substance?
Answer: 380 nM

Question: And the Kd (protein SYK-N, ref Jones et al. 2006 / Kaushansky et al. Mol Biosys 2008 / Kaushansky et al. Chem and Biol 2008)?
Answer: 290 nM

Question: And the Kd [4]?
Answer: 380 nM

Question: What about the Kd (protein TEC, ref Jones et al. 2006 / Kaushansky et al. Mol Biosys 2008 / Kaushansky et al. Chem and Biol 2008) of the same substance?
Answer: 480 nM

Question: And the Kd [5]?
Answer: 130 nM

Question: Which results are given for “ENPEpYLGLDVPVd [ErbB2 pY1248, N-terminally rhodamine-labeled 13-mer phosphopeptide]”?
Answer: Kd (Protein ABL2, original PM interactions, ref Jones et al. 2006 / Kaushansky et al. Chem and Biol 2008): 210 nM; Kd (Protein SHC1-PTB, original PM interactions, ref Jones et al. 2006 / Kaushansky et al. Chem and Biol 2008): 280 nM

Question: Which results are given for “ENPEpYLSEFSLKd [ErbB4 pY1284, N-terminally rhodamine-labeled 13-mer phosphopeptide]”?
Answer: Kd (protein ABL2, ref Jones et al. 2006): 220 nM; Kd (protein PIK3R2-NC, all original PM interactions, ref Jones et al. 2006): 2000 nM; Kd (protein PIK3R2-NC, ref Jones et al. 2006): 2000 nM; Kd (protein PIK3R3-NC, all original PM interactions, ref Jones et al. 2006): 2000 nM; Kd (protein PIK3R3-NC, ref Jones et al. 2006): 2000 nM; Kd (protein PLCG1-NC, all original PM interactions, ref Jones et al. 2006): 2000 nM; Kd (protein PLCG1-NC, ref Jones et al. 2006): 2000 nM; Kd (protein RASA1-N, ref Jones et al. 2006): 710 nM; Kd (protein SH2B3, all original PM interactions, ref Jones et al. 2006): 2000 nM; Kd (protein SH2B3, ref Jones et al. 2006): 2000 nM; Kd (protein SHC1-PTB, ref Jones et al. 2006): 24 nM; Kd (protein SLA2, all original PM interactions, ref Jones et al. 2006): 2000 nM; Kd (protein SLA2, ref Jones et al. 2006): 2000 nM; Kd (protein SYK-NC, ref Jones et al. 2006): 1670 nM; Kd (protein VAV2, all original PM interactions, ref Jones et al. 2006): 2000 nM; Kd (protein VAV2, ref Jones et al. 2006): 2000 nM

Question: What does the source list for FGGAVENPEpYLTPQGGA [ErbB2 1196]?
Answer: Kd [6]: 480 nM; Kd (Protein CRKL, most recent PM interactions, ref Jones et al. 2006 / Kaushansky et al. Chem and Biol 2008): 1440 nM; Kd (Protein FGR, most recent PM interactions, ref Jones et al. 2006 / Kaushansky et al. Chem and Biol 2008): 1680 nM; Kd (Protein GRB2, most recent PM interactions, ref Jones et al. 2006 / Kaushansky et al. Chem and Biol 2008): 1330 nM; Kd (Protein ITK, most recent PM interactions, ref Jones et al. 2006 / Kaushansky et al. Chem and Biol 2008): 770 nM; Kd (Protein NCK2, most recent PM interactions, ref Jones et al. 2006 / Kaushansky et al. Chem and Biol 2008): 1100 nM; Kd (Protein PIK3R1-NC, most recent PM interactions, ref Jones et al. 2006 / Kaushansky et al. Chem and Biol 2008): 230 nM; Kd (Protein PIK3R2-N, most recent PM interactions, ref Jones et al. 2006 / Kaushansky et al. Chem and Biol 2008): 1280 nM; Kd (Protein PIK3R3-N, most recent PM interactions, ref Jones et al. 2006 / Kaushansky et al. Chem and Biol 2008): 1390 nM; Kd (Protein PIK3R3-NC, most recent PM interactions, ref Jones et al. 2006 / Kaushansky et al. Chem and Biol 2008): 1340 nM; Kd (Protein PLCG2-NC, most recent PM interactions, ref Jones et al. 2006 / Kaushansky et al. Chem and Biol 2008): 1350 nM; Kd (Protein RASA1-N, most recent PM interactions, ref Jones et al. 2006 / Kaushansky et al. Chem and Biol 2008): 670 nM; Kd [7]: 350 nM; Kd (Protein SYK-C, most recent PM interactions, ref Jones et al. 2006 / Kaushansky et al. Chem and Biol 2008): 1240 nM; Kd (Protein SYK-NC, most recent PM interactions, ref Jones et al. 2006 / Kaushansky et al. Chem and Biol 2008): 1330 nM; Kd (Protein VAV1, most recent PM interactions, ref Jones et al. 2006 / Kaushansky et al. Chem and Biol 2008): 1250 nM; Kd (Protein VAV2, most recent PM interactions, ref Jones et al. 2006 / Kaushansky et al. Chem and Biol 2008): 230 nM; Kd (Protein VAV3, most recent PM interactions, ref Jones et al. 2006 / Kaushansky et al. Chem and Biol 2008): 600 nM; Kd (Protein YES1, most recent PM interactions, ref Jones et al. 2006 / Kaushansky et al. Chem and Biol 2008): 1190 nM

Question: With “FLQRpYSSDPTGAd [ErbB1 pY1069, N-terminally rhodamine-labeled 13-mer phosphopeptide]” as the substance, how does the Kd [1] read?
Answer: 2000 nM

Question: And the Kd [8]?
Answer: 860 nM

Question: What about the Kd [5] of the same substance?
Answer: 300 nM

Question: For “GSKPpYDGIPASEd [ErbB1 pY915, N-terminally rhodamine-labeled 13-mer phosphopeptide]”, which Kd [1] is on record?
Answer: 140 nM

Question: What about the Kd [2] of the same substance?
Answer: 1180 nM

Question: What about the Kd [3] of the same substance?
Answer: 1470 nM

Question: And the Kd [8]?
Answer: 1060 nM

Question: And the Kd [4]?
Answer: 1550 nM

Question: And the Kd [5]?
Answer: 330 nM

Question: For GTPTAENPEpYLGLDVPV [ErbB2 1248], which Kd [6] is on record?
Answer: 210 nM

Question: What about the Kd [7] of the same substance?
Answer: 280 nM
